One compound from PMC5967867, “An NMDAR positive and negative allosteric modulator series share a binding site and are interconverted by methyl groups” (eLife, 2018) can be followed below.

What is called melting point is the temperature, or range, at which the solid turns liquid.

The subject of series [1] is diheteromeric NMDARs. Kind of series: Two-electrode voltage-clamp recordings, statements across all diheteromeric NMDARs. Format: cell-based, rat. Here is the method: cDNAs for rat wild type NMDAR subunits GluN1-1a (GenBank U11418, U08261; hereafter GluN1 or GluN1a), GluN1-1b (U08263, hereafter GluN1b), GluN2A (D13211), GluN2B (U11419), GluN2C (M91563), and GluN2D (L31611, modified as described in [Monyer et al., 1994]) were provided by Drs. S. Heinemann (Salk Institute), S. Nakanishi (Kyoto University), and P. Seeburg (University of Heidelberg). Site-directed mutagenesis was conducted using the QuikChange kit (Agilent Technologies, Santa Clara, CA) following the recommended protocol. DNA sequencing was used to verify all mutations. The amino acid numbering system started with the initiating methionine as residue number one. For expression in Xenopus laevis oocytes, cDNA constructs were linearized by restriction enzymes, and subsequently used to synthesize in vitro cRNAs following the manufacturer’s protocol (mMessage mMachine, Ambion, ThermoFisher Scientific, Waltham, MA).
Xenopus laevis stage VI oocytes (Ecocyte Biosciences, Austin, TX) were injected as previously described ([Hansen et al., 2013]) 2–7 days prior to recording with cRNA encoding the NMDAR subunits and stored at 15°C in media containing (in mM) 88 NaCl, 2.4 NaHCO3, 1 KCl, 0.33 Ca(NO3)2, 0.41 CaCl2, 0.82 MgSO4, 5 Tris-HCl; pH was adjusted to 7.4 with NaOH and the solution supplemented with 1 U/mL penicillin, 0.1 mg/mL gentamicin sulfate, and 1 μg/mL streptomycin. Two-electrode voltage-clamp recordings were performed at room temperature (21–23°C) using different internal solutions for voltage and current electrodes (0.3 M and 3.0 M KCl, respectively). All extracellular solutions were made from a solution containing (in mM) 90 NaCl, 1 KCl, 10 HEPES, 0.5 BaCl2, 0.01 EDTA (pH 7.4 with NaOH). Experiments were performed using an eight port Modular Valve Positioner (Hamilton Company, Reno, NV) and controlled by custom software (Easy Oocyte, Emory University, Atlanta, GA)to exchange solutions. Oocyte currents were recorded at a holding potential of −40 mV using a two-electrode voltage-clamp amplifier (OC-725B or OC-725C, Warner Instruments, Hamden, CT). […]

Turning to `CCOC(=O)c1c(NC(=O)CC2SC(=N)NC2=O)sc2c1CCCC2` (stereo not shown) [EU1794-4, ethyl 2-(2-(2-imino-4-oxothiazolidin-5-yl)acetamido)-4,5,6,7-tetrahydrobenzo[b]thiophene-3-carboxylate], the melting point was 163 °C (dec.). Also, in series [1] (inhibition, across subtypes), the “potency of (-) enantiomer relative to (+) enantiomer” value was 3–10 fold. For the same compound, the “residual current at saturating levels” value in series [1] (saturating EU1794-4) is on record as 30–60%. In series [1] (saturating modulator and agonist, across NMDAR subtypes), the saturated inhibition was 40–70 % of control.
